Data on one substance can be found in publication PMC6766655, “AhR–ROR-γt complex is a therapeutic target for MAP4K3/GLK^highIL-17A^high subpopulation of systemic lupus erythematosus” (The FASEB Journal, 2019).

One data set has as its system Lck-GLK Tg mice. As to the kind of experiment: Serum cytokines and autoantibodies (ELISA) in Lck-GLK Tg mice. The class given is in vivo. To be noted: 0.4 μg/g body weight i.v. every 3 d. The source says: Lck-GLK Tg mice with C57BL/6J backgrounds and GLK-deficient mice with C57BL/6J backgrounds were generated as previously described ([18], [21]). Their respective wild-type littermates with C57BL/6J backgrounds were used as controls. Mice used in this report were either 20-wk-old sex-matched littermates or 8–10-wk-old sex-matched [all female for EAE, all male for collagen-induced arthritis (CIA)] C57BL/6J wild-type mice. All mice used in this study were maintained in temperature-controlled and pathogen-free cages. All animal experiments were performed in the Association for Assessment and Accreditation of Laboratory Animal Care–animal housing facilities at National Health Research Institutes. All mice were used according to the protocols and guidelines approved by the Institutional Animal Care and Use Committee of National Health Research Institutes.
Lck-GLK Tg mice were administered verteporfin (0.4 μg/g body weight) by intravenous injection every 3 d for a period of 30 d (Fig. 4A). […] Moreover, overproduction of autoantibodies (anti-nuclear antibody, anti-dsDNA antibody, and rheumatoid factor) in Lck-GLK Tg mice was also abolished by the verteporfin treatment for 30 d (Fig. 4C). […] To further verify that verteporfin is also effective in IL-17A–mediated animal models, we treated wild-type mice with verteporfin during induction of EAE and CIA.
Figure 4 Verteporfin (C1) suppresses IL-17 production and autoimmune responses in mice. A–C) Effect of C1 administration (0.4 μg/g body weight every 3 d for a period of 30 d) on serum IL-17A and autoantibodies in 20-wk-old Lck-GLK Tg mice. B) ELISA of serum IL-17A, IL-6, TNF-α, IFN-γ, and IL-17F in Lck-GLK Tg mice treated with C1 or PBS for 16 d. C) ELISA of serum autoantibodies in Lck-GLK Tg mice treated with C1 or PBS for 30 d. Means ± SEM are shown; n = 4/group. D) EAE induction in wild-type C57BL/6J mice treated with PBS or C1 (0.4 μg/g body weight every 3 d). Clinical scores are presented on a scale of 1–5. PBS group, n = 10; C1 group, n = 7. E) ELISA of IL-17A in the sera from MOG-immunized mice at day 16. […]

A further data set has as its target T1, HGK (MAP4K4) (Homo sapiens, UniProt O95819).
T1 construct: Recombinant proteins of kinase domains of various MAP4Ks were used; purchased Promega
The experiment in a line: In vitro kinase assay, myelin basic protein as substrate (ADP-Glo). The class given is biochemical. To be noted: recombinant kinase domain.

Data set [1] deals with murine primary T cells. As to the kind of experiment: ELISA of cytokines in supernatants of anti-CD3/CD28-stimulated murine primary T cells. The class given is cell-based. The note with it: anti-CD3 plus anti-CD28. From the text:
Primary human T cells were freshly isolated and negatively selected from the PBLs of clinical samples using a cocktail of biotin-conjugated anti-CD19, anti-CD14, and anti-CD11b antibodies (BioLegend) on a magnetic cell separation column (Miltenyi Biotec, Bergisch Gladbach, Germany) ([26]). In addition, primary murine T cells were negatively selected from the spleens of mice using magnetically coupled antibodies against CD11b, B220, CD49b, CD235, and TER-119 (Miltenyi Biotec) ([18]).
We further studied whether IL-17A production is abolished by verteporfin in human and murine T cells. We first tested the inhibitory effect of verteporfin in murine T cells stimulated with T-cell receptor (TCR) signaling (anti-CD3 plus anti-CD28 antibodies). […] This reduction is likely due to the inhibition of NF-κB activation ([18]) by the verteporfin treatment. This notion is supported by our published results that TCR-induced TNF-α and IFN-γ levels in T cells are inhibited by IKK-β conditional knockout ([18]). Next, we studied whether verteporfin attenuates IL-17A production using human peripheral blood T cells with stimulation. The levels of T-cell–secreted IL-17A in unstimulated T cells from patients with SLE and RA were enhanced compared with those from healthy controls (Fig. 5B). […] GLK overexpression in T cells selectively induces IL-17A production in Lck-GLK Tg mice ([18]). […] The inhibition of the production of other cytokines by the high-dose but not low-dose verteporfin treatment may be due to a requirement of higher concentration of verteporfin for an efficient inhibition of NF-κB activation.
Figure 5 Verteporfin (C1) blocks IL-17 production of human T cells. A) ELISA of various cytokines in supernatants of murine primary T cells stimulated with anti-CD3 or CD28 and cotreated with C1 (5 or 10 μM) for 3 d. Means ± SD are shown; n = 3/group. B) ELISA of various cytokines in supernatants of human T cells. T cells were stimulated with anti-CD3 or CD28 and cotreated with C1 (1 or 5 μM) for 3 d. HC, healthy control; N.S., not significant. Means ± SD are shown. *P < 0.05, **P < 0.01, ***P < 0.001 (2-tailed Student’s t test).

Data set [2] concerns murine primary T cells. As to the kind of experiment: Cell death of murine primary T cells (Fixable Viability Stain 780, flow cytometry). The class given is cell-based. To be noted: 1 or 5 μM for 3 d, anti-CD3/CD28 stimulated. Here is the method: Supplementary Figure 4. […] Murine primary T cells were stimulated with anti-CD3/CD28 and co-treated with verteporfin (C1) (1 or 5 μM) for 3 days. Dead T cells were labeled with Fixable Viability Stain 780 (FVS 780; BD Biosciences) and then determined by flow cytometry. Data shown are representatives of four independent experiments.

The subject of the next data set is Th17 differentiation. As to the kind of experiment: In vitro Th17 differentiation of splenic T cells (flow cytometry of IL-17A-producing CD4+ T cells). The class given is cell-based, murine. To be noted: 1 or 5 μM during differentiation, 3 days. Here is the method: Supplementary Figure 5. Verteporfin inhibits both Th17 differentiation and IL-17A production from in vitro differentiated Th17 cells. (A) Flow cytometry of IL-17A-producing CD4^+ T cells. Splenic T cells were co-treated with verteporfin (C1) (1 or 5 μM) during Th17 differentiation in vitro (for 3 days). (B) Flow cytometry of IL-17A-producing CD4^+ T cells. Murine in vitro differentiated Th17 cells were stimulated with PMA plus ionomycin and co-treated with verteporfin (C1) (1 or 5 μM) for 30 min. Data shown are representatives of two independent experiments.

A further data set concerns EAE mice. The experiment in a line: MOG-induced EAE in wild-type C57BL/6J mice. The class given is in vivo. To be noted: 0.4 μg/g body weight i.v. every 3 d.

T1 sequence (O95819 25-289 limits assumed): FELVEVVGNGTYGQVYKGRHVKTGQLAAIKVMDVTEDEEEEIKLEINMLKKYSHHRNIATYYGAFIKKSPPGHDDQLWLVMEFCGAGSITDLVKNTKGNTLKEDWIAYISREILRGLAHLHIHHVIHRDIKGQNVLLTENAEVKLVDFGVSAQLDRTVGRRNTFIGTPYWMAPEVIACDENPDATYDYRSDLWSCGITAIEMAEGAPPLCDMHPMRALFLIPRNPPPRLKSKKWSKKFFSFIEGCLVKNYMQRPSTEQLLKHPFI

Regarding verteporfin, in the data set on Lck-GLK Tg mice (16 d), the “serum levels of IL-6, TNF-α, IFN-γ, and IL-17F” value was “not significantly changed”. Further, in the data set with Lck-GLK Tg mice (16 d, vs PBS), the “serum IL-17A” value is reported as “significantly decreased”. Moreover, the “overproduction of autoantibodies (anti-nuclear antibody, anti-dsDNA antibody, rheumatoid factor)” value with Lck-GLK Tg mice (30 d) is “abolished”. The IC50 at HGK (MAP4K4) was 4.92 nM. Further, in the data set on murine primary T cells [1] (5 or 10 μM for 3 d), the “TCR-induced IL-17A production” value was “drastically abolished”; the “TCR-induced IL-17B, IL-17E, and IL-17F levels” value is on record as “not significantly decreased”; the “TCR-induced TNF-α levels” value is “slightly but not significantly reduced”. Besides, in the data set with murine primary T cells [1] (high-dose 10 μM for 3 d), the “TCR-induced IFN-γ levels” value is “significantly inhibited”. Moreover, in the data set on murine primary T cells [2], the “cell death of murine primary T cells” value was “did not enhance cell death”. In the data set on murine primary T cells [2] (listed as Verteporfin), the “cell death of murine primary T cells” value is “does not induce cell death”. For the same substance, the Th17 differentiation result with Th17 differentiation is recorded as “inhibited”. Further, in the data set on Th17 differentiation (listed as Verteporfin), the Th17 differentiation entry is recorded as “inhibits”. Moreover, in the data set on EAE mice, the “disease severity (clinical score), EAE” value is given as “significantly suppressed”; the “serum levels of IL-6, TNF-α, IFN-γ, and IL-4, EAE” value is “not significantly decreased”. The “serum IL-17A levels, EAE” value in the data set with EAE mice (day 16) is “significantly suppressed”.
